Where two headings read alike, the source gives them in different places.
Key:
HCV replicon = HCV replicon FRET assay; type: cell-based; conditions: Hepatitis C virus
Text: FRET Assay Preparation. To perform the HCV FRET screening assay, 96-well cell culture plates were used. The FRET peptide (Anaspec, Inc.) (Taliani et al., Anal. Biochem. 1996, 240, 60-67) contains a fluorescence donor, EDANS, near one end of the peptide and an acceptor, DABCYL, near the other end. The fluorescence of the peptide is quenched by […] resonance energy transfer (RET) between the donor and the acceptor, but as the NS3 protease cleaves the peptide the products are released from RET quenching and the fluorescence of the donor becomes apparent. The assay reagent was made as follows: 5× cell Luciferase cell culture lysis reagent from Promega (#E153A) diluted to 1× with dH2O, NaCl added to 150 mM final, the FRET peptide diluted to 20 uM final from a 2 mM stock.
To prepare plates, HCV replicon cells, with or without a Renilla luciferase reporter gene, were trypsinized and placed into each well of a 96-well plate with titrated test compounds added in columns 3 through 12; columns 1 and 2 contained a control compound (HCV protease inhibitor), and the bottom row contained cells without compound. The plates were then placed in a CO2 incubator at 37° C.
Assays. Subsequent to addition of the test compounds described above (FRET Assay Preparation), at various times the plate was removed and Alamar blue solution (Trek Diagnostics, #00-100) was added per well as a measure of cellular toxicity. After reading in a Cytoflour 4000 instrument (PE Biosystems), plates were rinsed with PBS and then used for FRET assay by the addition of 30 ul of the FRET peptide assay reagent described above (FRET Assay Preparation) per well. The plate was then placed into the Cytoflour 4000 instrument which had been set to 340 excite/490 emission, automatic mode for 20 cycles and the plate read in a kinetic mode. Typically, the signal to noise using an endpoint analysis after the reads was at least three-fold. Alternatively, after Alamar blue reading, plates were rinsed with PBS, 50 ul of DMEM (high glucose) without phenol red was added and plates were then used for luciferase assay using the Promega Dual-Glo Luciferase Assay System.
Compound analysis was determined by quantification of the relative HCV replicon inhibition and the relative cytotoxicity values. To calculate cytoxicity values, the average Alamar Blue fluorescence signals from the control wells were set as 100% non-toxic. The individual signals in each of the compound test wells were then divided by the average control signal and multiplied by 100% to determine […]. To calculate the HCV replicon inhibition values, an average background value was obtained from the two wells containing the highest amount of HCV protease inhibitor at the end of the assay period. These numbers were similar to those obtained from naïve Huh-7 cells.
The background numbers were then subtracted from the average signal obtained from the control wells and this number was used as 100% activity. The individual signals in each of the compound test wells were then divided by the averaged control values after background subtraction and multiplied by 100% to determine percent activity. EC50 values for a protease inhibitor titration were calculated as the concentration which caused a 50% reduction in FRET or luciferase activity. The two numbers generated for the compound plate, percent cytoxicity and percent activity were used to determine compounds of interest for further analysis.

HCV NS5B = target: T1, HCV NS5B (Hepatitis C virus genotype 1b, UniProt Q9WMX2); experiment: HCV NS5B RdRp enzyme assay (preincubation protocol); type: biochemical; conditions: Table 1, read-out: IC50*
T1 construct: The protein was expressed with an 18 amino acid C-terminal truncation to enhance the solubility; made in house; host or cells: E. coli BL21 (DE3), pET21a
T1 sequence (Q9WMX2 2420-2992): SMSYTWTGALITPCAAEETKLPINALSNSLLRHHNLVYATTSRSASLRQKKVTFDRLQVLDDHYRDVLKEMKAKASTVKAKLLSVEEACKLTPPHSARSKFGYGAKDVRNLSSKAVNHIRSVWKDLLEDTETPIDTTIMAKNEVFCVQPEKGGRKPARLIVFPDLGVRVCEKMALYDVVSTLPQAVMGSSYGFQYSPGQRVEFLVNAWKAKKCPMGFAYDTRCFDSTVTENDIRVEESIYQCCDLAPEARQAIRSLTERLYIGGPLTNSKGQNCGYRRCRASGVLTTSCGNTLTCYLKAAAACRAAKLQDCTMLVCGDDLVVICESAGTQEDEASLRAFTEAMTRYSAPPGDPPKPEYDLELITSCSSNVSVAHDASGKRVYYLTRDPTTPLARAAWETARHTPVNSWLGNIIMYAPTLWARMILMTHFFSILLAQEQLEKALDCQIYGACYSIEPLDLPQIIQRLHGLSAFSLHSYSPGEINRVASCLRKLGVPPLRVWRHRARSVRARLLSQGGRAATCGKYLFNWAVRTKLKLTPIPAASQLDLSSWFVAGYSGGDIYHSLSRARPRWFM
Procedure, shortened: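 Preincubation format: enzyme (14 nM, genotype 1b, 18-residue C-terminal truncation) meets diluted compound first; reaction started with bead-bound biotinylated dT12 primer, polyA template 0.2 nM and 0.29 μM 3H-UTP. Run 4 h, 30 °C in Hepes pH 7.5; scintillation proximity signal; IC50 fitted from seven inhibitor levels.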

[1] = Table 1, FRET assay, read-out: EC50*

Row | Compound | EC50 (HCV replicon; [1]) [nM] | IC50 (HCV NS5B) [nM] | EC50 (HCV replicon) [nM]
1 | CN(C)S(=O)(=O)NC(=O)c1ccc2c(C3CCCCC3)c3n(c2c1)CC(C(=O)N1CCN(C(=O)c2ccccc2)CC1)=Cc1ccccc1-3 | 70 to 1000 | 10 to 1000 | –
2 | C[C@@H]1CN(C(=O)c2ccccc2)CCN1C(=O)C1=Cc2ccccc2-c2c(C3CCCCC3)c3ccc(C(=O)NS(=O)(=O)N(C)C)cc3n2C1 | 70 to 1000 | 10 to 1000 | –
3 | CN(C)S(=O)(=O)NC(=O)c1ccc2c(C3CCCCC3)c3n(c2c1)CC(C(=O)N1CCN2C(=O)c4ccccc4C2C1)=Cc1ccccc1-3 (centres unmarked) | 70 to 1000 | 10 to 1000 | –
4 | O=C(O)c1ccc2c(C3CCCCC3)c3n(c2c1)CC(C(=O)N1CCN(c2ncccn2)CC1)=Cc1ccccc1-3 | 70 to 1000 | 10 to 1000 | –
5 | CN(C)S(=O)(=O)NC(=O)c1ccc2c(C3CCCCC3)c3n(c2c1)CC(C(=O)N1CCN(c2ncccn2)CC1)=Cc1ccccc1-3 | 70 to 1000 | 10 to 1000 | –
6 | CN(C)S(=O)(=O)NC(=O)c1ccc2c(C3CCCCC3)c3n(c2c1)CC(C(=O)N1CCN(C(=O)N2CCOCC2)CC1)=Cc1ccccc1-3 | 70 to 1000 | 10 to 1000 | –
7 | CN1CCCC(CN(C)C(=O)C2=Cc3ccccc3-c3c(C4CCCCC4)c4ccc(C(=O)NS(=O)(=O)N(C)C)cc4n3C2)C1 (centres unmarked) | 70 to 1000 | 10 to 1000 | –
8 | O=C(Nc1nccs1)C1=Cc2ccccc2-c2c(C3CCCCC3)c3ccc(C(=O)O)cc3n2C1 | 1000 to 10000 | 10 to 1000 | –
9 | O=C(O)c1ccc2c(C3CCCCC3)c3n(c2c1)CC(C(=O)N1C2CCC1CC2)=Cc1ccccc1-3 | – | 10 to 1000 | 70 to 1000
10 | CN(C)S(=O)(=O)NC(=O)c1ccc2c(C3CCCCC3)c3n(c2c1)CC(C(=O)N1C2CCC1CC2)=Cc1ccccc1-3 | – | 10 to 1000 | 70 to 1000
11 | COC(=O)c1ccc2c(C3CCCCC3)c3n(c2c1)CC(C(=O)N1CC2(CCN(C)CC2)C1)=Cc1ccccc1-3 | 1000 to 10000 | > 1000 | –
12 | CN1CCC2(CC1)CN(C(=O)C1=Cc3ccccc3-c3c(C4CCCCC4)c4ccc(C(=O)O)cc4n3C1)C2 | 70 to 1000 | 10 to 1000 | –
13 | CN(C)S(=O)(=O)NC(=O)c1ccc2c(C3CCCCC3)c3n(c2c1)CC(C(=O)Nc1nccs1)=Cc1ccccc1-3 | 70 to 1000 | 10 to 1000 | –
14 | CN(C)S(=O)(=O)NC(=O)c1ccc2c(C3CCCCC3)c3n(c2c1)CC(C(=O)N1C[C@@H]2C[C@H]1CN2C(=O)OC(C)(C)C)=Cc1ccccc1-3 | 70 to 1000 | 10 to 1000 | –
15 | CN(C)S(=O)(=O)NC(=O)c1ccc2c(C3CCCCC3)c3n(c2c1)CC(C(=O)N1C[C@@H]2C[C@H]1CO2)=Cc1ccccc1-3 | 70 to 1000 | 10 to 1000 | –
16 | CCN(C(C)=O)C1CCN(C(=O)C2=Cc3ccccc3-c3c(C4CCCCC4)c4ccc(C(=O)NS(=O)(=O)N(C)C)cc4n3C2)C1 (centres unmarked) | 70 to 1000 | 10 to 1000 | –
17 | CN(CCC1OCCO1)C(=O)C1=Cc2ccccc2-c2c(C3CCCCC3)c3ccc(C(=O)NS(=O)(=O)N(C)C)cc3n2C1 | 70 to 1000 | 10 to 1000 | –
18 | COC[C@H]1CCCN1C(=O)C1=Cc2ccccc2-c2c(C3CCCCC3)c3ccc(C(=O)NS(=O)(=O)N(C)C)cc3n2C1 | 70 to 1000 | 10 to 1000 | –
19 | COCCN(CCOC)C(=O)C1=Cc2ccccc2-c2c(C3CCCCC3)c3ccc(C(=O)NS(=O)(=O)N(C)C)cc3n2C1 | 70 to 1000 | 10 to 1000 | –
20 | COCCN(C)C(=O)C1=Cc2ccccc2-c2c(C3CCCCC3)c3ccc(C(=O)NS(=O)(=O)N(C)C)cc3n2C1 | 70 to 1000 | 10 to 1000 | –
21 | CN(C)S(=O)(=O)NC(=O)c1ccc2c(C3CCCCC3)c3n(c2c1)CC(C(=O)N1CCC(CNC(=O)c2ccccc2)C1)=Cc1ccccc1-3 (centres unmarked) | 70 to 1000 | 10 to 1000 | –
22 | CN(C)S(=O)(=O)NC(=O)c1ccc2c(C3CCCCC3)c3n(c2c1)CC(C(=O)NC1CCOCC1)=Cc1ccccc1-3 | 70 to 1000 | 10 to 1000 | –
23 | COC(=O)c1ccc2c(C3CCCCC3)c3n(c2c1)CC(NC(=O)N1CCOCC1)Cc1ccccc1-3 (centres unmarked) | > 120 | > 1000 | –

Row | Compound | EC50 (HCV replicon; [1]) [nM] | IC50 (HCV NS5B) [nM] | EC50 (HCV replicon) [nM]
24 | O=C(O)c1ccc2c(C3CCCCC3)c3n(c2c1)CC(NC(=O)N1CCOCC1)Cc1ccccc1-3 (centres unmarked) | 70 to 1000 | 10 to 1000 | –
25 | COC(=O)c1ccc2c(C3CCCCC3)c3n(c2c1)CC(C(=O)N1CCC(C(N)=O)C1)=Cc1ccccc1-3 (centres unmarked) | 1000 to 10000 | > 1000 | –
26 | NC(=O)C1CCN(C(=O)C2=Cc3ccccc3-c3c(C4CCCCC4)c4ccc(C(=O)O)cc4n3C2)C1 (centres unmarked) | 1000 to 10000 | 10 to 1000 | –
27 | CN(C)S(=O)(=O)NC(=O)c1ccc2c(C3CCCCC3)c3n(c2c1)CC(C(=O)N1CCC(N2CCOCC2)CC1)=Cc1cc(O)ccc1-3 | 70 to 1000 | 10 to 1000 | –
28 | COC(=O)c1ccc2c(C3CCCCC3)c3n(c2c1)CC(NC(=O)N1C[C@@H](C)O[C@@H](C)C1)Cc1ccccc1-3 (some centres unmarked) | > 120 | > 1000 | –
29 | CC(=O)N(C)C1CCN(C(=O)C2=Cc3ccccc3-c3c(C4CCCCC4)c4ccc(C(=O)NS(=O)(=O)N(C)C)cc4n3C2)C1 (centres unmarked) | 70 to 1000 | 10 to 1000 | –
30 | CN(C)C(=O)[C@@H]1CCCN1C(=O)C1=Cc2ccccc2-c2c(C3CCCCC3)c3ccc(C(=O)NS(=O)(=O)N(C)C)cc3n2C1 | 70 to 1000 | 10 to 1000 | –
31 | CN(C)S(=O)(=O)NC(=O)c1ccc2c(C3CCCCC3)c3n(c2c1)CC(C(=O)N1CCC(Oc2ncccn2)CC1)=Cc1ccccc1-3 | 70 to 1000 | 10 to 1000 | –
32 | CN(C)S(=O)(=O)NC(=O)c1ccc2c(C3CCCCC3)c3n(c2c1)CC(C(=O)N1CCOC(c2ccccc2)C1)=Cc1ccccc1-3 (centres unmarked) | 1000 to 10000 | 10 to 1000 | –
33 | CN(C(=O)C1=Cc2ccccc2-c2c(C3CCCCC3)c3ccc(C(=O)NS(=O)(=O)N(C)C)cc3n2C1)C1CCS(=O)(=O)C1 (centres unmarked) | 70 to 1000 | 10 to 1000 | –
34 | CN(C)S(=O)(=O)NC(=O)c1ccc2c(C3CCCCC3)c3n(c2c1)CC(C(=O)N1CCS(=O)(=O)CC1)=Cc1ccccc1-3 | 70 to 1000 | 10 to 1000 | –
35 | COC(=O)c1ccc2c(C3CCCCC3)c3n(c2c1)CC(C(=O)N(C)NC(C)=O)=Cc1ccccc1-3 | 1000 to 10000 | > 1000 | –
36 | CC(=O)NN(C)C(=O)C1=Cc2ccccc2-c2c(C3CCCCC3)c3ccc(C(=O)NS(=O)(=O)N(C)C)cc3n2C1 | 70 to 1000 | 10 to 1000 | –
37 | O=C(O)c1ccc2c(C3CCCCC3)c3n(c2c1)C[C@@H](NC(=O)N1CCOCC1)Cc1ccccc1-3 | 70 to 1000 | 10 to 1000 | –
38 | O=C(O)c1ccc2c(C3CCCCC3)c3n(c2c1)C[C@H](NC(=O)N1CCOCC1)Cc1ccccc1-3 | 70 to 1000 | 10 to 1000 | –
39 | COc1ccc2c(c1)C=C(C(=O)N(C)CC(=O)N(C)C)Cn1c-2c(C2CCCCC2)c2ccc(C(=O)O)cc21 | 70 to 1000 | 10 to 1000 | –
40 | C[C@@H]1CN(C(=O)NC2Cc3ccccc3-c3c(C4CCCCC4)c4ccc(C(=O)NS(=O)(=O)N(C)C)cc4n3C2)C[C@H](C)O1 (some centres unmarked) | 70 to 1000 | 10 to 1000 | –
41 | O=C(NC1Cc2ccccc2-c2c(C3CCCCC3)c3ccc(C(=O)O)cc3n2C1)OCc1ccccc1 (centres unmarked) | 70 to 1000 | 10 to 1000 | –
42 | COC(=O)c1ccc2c(C3CCCCC3)c3n(c2c1)CC(C(=O)N1CCC(N2CCOCC2)CC1)=Cc1ccccc1-3 | 1000 to 10000 | > 1000 | –
43 | O=C(O)c1ccc2c(C3CCCCC3)c3n(c2c1)CC(C(=O)N1CCC(N2CCOCC2)CC1)=Cc1ccccc1-3 | 70 to 1000 | 10 to 1000 | –
44 | CN(C)S(=O)(=O)NC(=O)c1ccc2c(C3CCCCC3)c3n(c2c1)CC(C(=O)N1CCC(N2CCOCC2)CC1)=Cc1ccccc1-3 | 70 to 1000 | 10 to 1000 | –
45 | O=C(O)c1ccc2c(C3CCCCC3)c3n(c2c1)CC(C(=O)N1CCC(N2C(=O)Cc4ccccc42)CC1)=Cc1ccccc1-3 | – | 10 to 1000 | 70 to 1000
46 | O=C(O)c1ccc2c(C3CCCCC3)c3n(c2c1)CC(C(=O)N1CCC(C(=O)N2CCCC2)CC1)=Cc1ccccc1-3 | 70 to 1000 | 10 to 1000 | –
